Assay results reported in patent publication US20110294722A1, “ANTIMICROBIAL PEPTIDES” (priority 2008, published 2011).
Where two headings read alike, the source gives them in different places. No end group written: not given here.

What was measured:
[1] = system: Cladosporium herbarum; assay: In-vitro inhibition assay (MIC), Example 2; assay type: cell-based; conditions: visual screening
Protocol: (§1) In-vitro inhibition assays were performed in sterile flat-bottom 96-well plates (Greiner bio-one, Frickenhausen). Antimicrobial peptides were dissolved in 0.01% acetic acid containing 0.2% BSA (500 μg/ml), filter sterilized and stored at −20° C. For inhibition assays dilutions of peptides ranging from 5 to 200 μg/ml were prepared and 10 μl (antibacterial assay) or 20 μl (antifungal assay) of each concentration was loaded per well.
(§2) Spores of fungi were collected by water washes of sporulating cultures grown on 2% malt extract agar and spore concentration was determined by microscopy. The concentration of the spores was adjusted to 1.5-2×10^3 spores/ml in 2% malt extract medium and 80 μl of fungal spores were added per well. The final peptide concentrations used in the fungal inhibition assays were […]. After overnight incubation at room temperature the plate were put on a rotary shaker (300 rpm) for further two days to ensure consistantly growth. Antifungal effects of the peptides were determined by a microplate reader (Alternaria, Fusarium) at OD590 nm or by visual screening of the plates (Botrytis, Cladosporium).
(§3) The lowest peptide concentration leading to complete inhibition of bacterial growth or spore germination/mycelial growth (minimal inhibition concentration, MIC) was determined for each organism-peptide combination. For each peptide concentration two identical inhibition assays were performed.

[2] = system: Botrytis cinerea; assay: In-vitro inhibition assay (MIC), Example 2; assay type: cell-based; conditions: visual screening
Protocol: as §1, §2, §3

[3] = system: Alternaria alternata; assay: In-vitro inhibition assay (MIC), Example 2; assay type: cell-based; conditions: OD590 nm
Protocol: as §1, §2, §3

[4] = system: Pectobacterium carotovorum; assay type: cell-based; conditions: for LC (lethal concentration, 100% inhibition): at least 4 days of incubation
Protocol: as §1, with “20” for “20 μl”
(§4) Bacteria colonies from overnight agar plate cultures were resuspended into 5 ml LB-medium or HPG-medium (OD600 nm=0.08-0.1) and diluted into LB-medium/HPG-medium (1:100). 90 μl of this suspension containing about 10^5-10^6 CFU/ml of tested bacteria were added to each well resulting in final peptide concentrations of 0, 0.5, 1, 2, 5, 10, and 20 μg/ml. […] The lowest concentration, in which there is no observable growth (>90% inhibition) is referred to as minimal inhibitory concentration (MIC). […] For each peptide concentration two identical inhibition assays were performed.

[5] = system: Pseudomonas corrugata; assay type: cell-based; conditions: for LC (lethal concentration, 100% inhibition): at least 4 days of incubation
Protocol: as §1, with “20” for “20 μl”
as §4

[6] = system: Pseudomonas syringae pv. tomato; assay type: cell-based; conditions: for LC (lethal concentration, 100% inhibition): at least 4 days of incubation
Protocol: as §1, with “20” for “20 μl”
as §4

[7] = system: Pseudomonas syringae pv. syringae; assay type: cell-based; conditions: for LC (lethal concentration, 100% inhibition): at least 4 days of incubation
Protocol: as §1, with “20” for “20 μl”
as §4

[8] = system: Xanthomonas vesicatoria; assay: In-vitro inhibition assay (MIC and LC), Example 3; assay type: cell-based; conditions: for MIC (>90% inhibition): 1-2 days at 25° C.; for LC (lethal concentration, 100% inhibition): at least 4 days of incubation
Protocol: as §1, with “20” for “20 μl”
as §4

[9] = system: Clavibacter michiganensis; assay: In-vitro inhibition assay (MIC and LC), Example 3; assay type: cell-based; conditions: for MIC (>90% inhibition): 1-2 days at 25° C.; for LC (lethal concentration, 100% inhibition): at least 4 days of incubation
Protocol: as §1, with “20” for “20 μl”
as §4

[10] = system: Clavibacter michiganensis sub. michiganensis; conditions: overnight 25° C.
[11] = system: Pseudomonas syringae pv. syringae
[12] = system: Pseudomonas syringae pv. tomato
[13] = system: Xanthomonas vesicatoria
[14] = system: Pectobacterium carotovorum sub. carotovorum
[15] = system: Pseudomonas corrugata
[16] = system: phytopathogenic fungi; assay: Antifungal inhibition assay, summary statement; assay type: cell-based; conditions: summary of Table 1
Protocol: as §1, §2
The lowest peptide concentration leading to complete inhibition of bacterial growth or spore germination/mycelial growth (minimal inhibition concentration, MIC) was determined for each organism-peptide combination. […]

[17] = Pectobacterium carotovorum, 1-2 days at 25° C.
[18] = Pseudomonas corrugata, 1-2 days at 25° C.
[19] = Pseudomonas syringae pv. tomato, 1-2 days at 25° C.
[20] = Pseudomonas syringae pv. tomato
[21] = Pseudomonas syringae pv. syringae, 1-2 days at 25° C.
[22] = Pseudomonas syringae pv. syringae

Substance | Minimal inhibition concentration (MIC) for complete inhibition of spore germination/mycelial growth [1] [µg/mL] | Minimal inhibition concentration (MIC) for complete inhibition of spore germination/mycelial growth [2] [µg/mL] | Minimal inhibition concentration (MIC) for complete inhibition of spore germination/mycelial growth [3] [µg/mL] | MIC (>90% inhibition) [4, 17] | LC (lethal concentration, 100% inhibition) ([4]; Pectobacterium carotovorum) | MIC (>90% inhibition) [5, 18] | LC (lethal concentration, 100% inhibition) ([5]; Pseudomonas corrugata) | MIC (>90% inhibition) [6, 19] | LC (lethal concentration, 100% inhibition) [6, 20] | MIC (>90% inhibition) [7, 21] | LC (lethal concentration, 100% inhibition) [7, 22] | MIC (>90% inhibition) [8] | LC (lethal concentration, 100% inhibition) [8] | MIC (>90% inhibition) [9] | LC (lethal concentration, 100% inhibition) [9] | further results
KKKAARALKRAL-NH2 [Sp4, KKKAARALKRAL] | 40 | >100 | >100 | – | – | – | – | – | – | – | – | – | – | – | – | –
RKKRKKLIKRLI-NH2 [Sp1-19] | – | – | – | >10/>10 μg/ml | >10/>10 μg/ml | 0.5 µg/mL | 1.0 µg/mL | >10/>10 μg/ml | >10/>10 μg/ml | < 0.1 µg/mL | 5.0 µg/mL | 5.0 µg/mL | > 10 µg/mL | 5.0/5.0 μg/ml | 5.0/5.0 μg/ml | –
RKKRKKLLKRLI-NH2 [SP1-20] | – | – | – | >10/>10 μg/ml | >10/>10 μg/ml | 0.5/0.5 μg/ml | 0.5/0.5 μg/ml | 10/>10 μg/ml | 10/>10 μg/ml | 0.25 µg/mL | 10 µg/mL | 10/>10 μg/ml | 10/>10 μg/ml | 5.0 µg/mL | 10 µg/mL | –
RKKRKKLLKRLL-NH2 [SP1-18] | – | – | – | >10/>10 μg/ml | >10/>10 μg/ml | 0.25 µg/mL | 0.5 µg/mL | 1.0 µg/mL | 0.5 µg/mL | 0.1 µg/mL | 5.0 µg/mL | 5.0 µg/mL | 10 µg/mL | 5.0/5.0 μg/ml | 5.0/5.0 μg/ml | –
RKKRLKLLKRLL-NH2 [SP1-1] | – | – | – | – | >10/>10 μg/ml | < 0.1 µg/mL | 0.25 µg/mL | – | >10/>10 μg/ml | 0.1/0.1 μg/ml | 0.1/0.1 μg/ml | 0.1 µg/mL | 0.25 µg/mL | 2.5/2.5 μg/ml | 2.5/2.5 μg/ml | MIC (>90% inhibition) [6]: >10/>10 μg/ml
RKKRLKLLKRLV-NH2 [SP1] | 10 | >100 | >100 | – | >10/>10 μg/ml | – | 1.0 µg/mL | – | 10/10 μg/ml | – | 0.5 µg/mL | 0.5 µg/mL | 1.0 µg/mL | 5.0/5.0 μg/ml | 5.0/5.0 μg/ml | Minimal inhibition concentration (MIC) for complete inhibition of bacterial growth [10]: 1 µg/mL; Minimal inhibition concentration (MIC) for complete inhibition of bacterial growth [11]: 2 µg/mL; Minimal inhibition concentration (MIC) for complete inhibition of bacterial growth [12]: 1 µg/mL; Minimal inhibition concentration (MIC) for complete inhibition of bacterial growth [13]: 2 µg/mL; Minimal inhibition concentration (MIC) for complete inhibition of bacterial growth [14]: >40 µg/mL; Minimal inhibition concentration (MIC) for complete inhibition of bacterial growth [15]: 2 µg/mL; MIC (>90% inhibition) [4]: >10/>10 μg/ml; MIC (>90% inhibition) [5]: 0.5 µg/mL; MIC (>90% inhibition) [6]: 10/10 μg/ml; MIC (>90% inhibition) [7]: 0.1 µg/mL
RKKRLKVVKRLV-NH2 [SP1-4] | – | – | – | >10/>10 μg/ml | >10/>10 μg/ml | >10/>10 μg/ml | >10/>10 μg/ml | 2.5 µg/mL | > 10 µg/mL | 5.0 µg/mL | > 10 µg/mL | >10/>10 μg/ml | >10/>10 μg/ml | >10/>10 μg/ml | >10/>10 μg/ml | –
RKKRLRVVRRLV-NH2 [SP1-5] | – | – | – | >10/>10 μg/ml | >10/>10 μg/ml | 5.0 µg/mL | – | 1.0 µg/mL | 2.5 µg/mL | >10/>10 μg/ml | >10/>10 μg/ml | >10/>10 μg/ml | >10/>10 μg/ml | >10/>10 μg/ml | >10/>10 μg/ml | –
RKKRVKLLKRLV-NH2 [SP1-2] | – | – | – | >10/>10 μg/ml | >10/>10 μg/ml | 0.5 µg/mL | 2.5 µg/mL | 5.0/5.0 μg/ml | 5.0/5.0 μg/ml | 2.5 µg/mL | 5.0 µg/mL | 5.0 µg/mL | > 10 µg/mL | 10/>10 μg/ml | 10/>10 μg/ml | –
RKRAARLLKRLV-NH2 [Sp2] | 20 | >100 | >100 | – | – | – | – | – | – | – | – | – | – | – | – | –
RKRFARFAKRAV-NH2 [Sp3] | 40 | >100 | >100 | – | – | – | – | – | – | – | – | – | – | – | – | –
SP1-D: Polypeptide SP1 (RKKRLKLLKRLV) with D-amino acids incorporated; D positions marked bold/italic in b61, not recoverable (also: D-amino acids at unstated positions) | 20 | >40 | 20 | – | – | – | – | – | – | – | – | – | – | – | – | Minimal inhibition concentration (MIC) for complete inhibition of bacterial growth [10]: 40 µg/mL; Minimal inhibition concentration (MIC) for complete inhibition of bacterial growth ([11]; Pseudomonas syringae pv. syringae, overnight 25° C.): 5 µg/mL; Efficacy against phytopathogenic fungi [16]: high efficacy against phytopathogenic fungi; Minimal inhibition concentration (MIC) for complete inhibition of bacterial growth ([12]; Pseudomonas syringae pv. tomato, overnight 25° C.): 5 µg/mL; Minimal inhibition concentration (MIC) for complete inhibition of bacterial growth ([13]; Xanthomonas vesicatoria, overnight 25° C.): 40 µg/mL; Minimal inhibition concentration (MIC) for complete inhibition of bacterial growth ([14]; Pectobacterium carotovorum sub. carotovorum, overnight 25° C.): >40 µg/mL; Minimal inhibition concentration (MIC) for complete inhibition of bacterial growth ([15]; Pseudomonas corrugata, overnight 25° C.): 20 µg/mL
